The record followed here is PMC6327999, “Hydroxyl-substituted double Schiff-base condensed 4-piperidone/cyclohexanones as potential anticancer agents with biological evaluation” (Journal of Enzyme Inhibition and Medicinal Chemistry, 2019).

Like-named read-outs stand apart in the source and are kept apart here.

The subject of assay [1] is human normal heptical cell line (LO2). Kind of assay: Cytotoxicity, MTT assay, non-malignant LO2. The note with it: 24 hours, non-malignant cells. The assay is classed as cell-based. Summed up: (§1)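 Cells seeded 1 × 10^4/well for 24 h, then exposed to serial compound concentrations (50–0.01 µg/mL) for 24 h at 37 °C, 5% CO2; LO2, K562, HeLa, SGC7901 grown in 1640 medium with 10% FBS. MTT 4 h, formazan in DMSO, OD 570 nm; IC50 from triplicate viability versus untreated controls.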

The test system of assay [2] is human carcinoma cell lines A549, SGC7901, HePG2, HeLa, K562, THP-1. Kind of assay: Cytotoxicity, MTT assay, panel of human carcinoma cell lines (average / overall). The settings on record: for IC50: Homo sapiens. Format: cell-based. Summed up: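 IC50 values from triplicate MTT read-outs (570 nm, DMSO-dissolved formazan) relative to untreated controls with 0.1% DMSO. Compounds were tested from 0.01 to 50 µg/mL for 24 h at 37 °C on cells plated 24 h earlier at 1 × 10^4 cells/well. HePG2 grown in DMEM, others in 1640 medium, both with 10% FBS.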

Assay [3] relates to human liver hepatocellular carcinoma cell line (Hepg2). Kind of assay: Cytotoxicity, MTT assay, HePG2. Format: cell-based. Summed up: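 Modified MTT assay: OD at 570 nm after 4 hours MTT incubation and DMSO solubilisation, giving viability relative to untreated cells and IC50 (triplicate). Compounds (0.01–50 µg/mL) applied 24 hours to HepG2 cells grown in DMEM with 10% FBS, pre-seeded 24 hours at 1 × 10^4 cells/well.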

Assay [4] concerns human chronic myelogenous leukemia cell line (K562). Kind of assay: Cytotoxicity, MTT assay, K562. The assay is classed as cell-based. The method, boiled down: as §1
The test system of assay [5] is human cervical carcinoma cells (HeLa). Kind of assay: Cytotoxicity, MTT assay, HeLa. Format: cell-based. Summed up: as §1
For assay [6], the system named is HepG2 cells. Kind of assay: Apoptosis assay, Annexin V-FITC/PI flow cytometry. Format: cell-based, human. The note with it: 5c treatment for 24 hours, 1.0, 2.0, 4.0 µM, early and late apoptosis. The procedure: HepG2 cells were plated at a density of 1 × 10^5 cells/well in 24-well plates. […] One hundred microliters of such solution (1 × 10^5 cells) was mixed with 5 µL of Annexin V-FITC and 5µL of Propidium Iodide (BD Biosciences, San Jose, CA, USA) according to the manufacturer’s instruction. The mixed solution was gently vortexed and incubated in the dark at room temperature for 15 minutes. Four hundred microliters of 1X binding buffer were then added to each tube and cell apoptosis analysis was performed by flow cytometry (BD FACS Calibur) within 1 hour.

Assay [7] relates to HepG2 xenografts. Kind of assay: In vivo antitumor efficacy, HepG2-bearing nude mice. Also noted: species or system Balb/c nude mice. The procedure: The antitumor effect was investigated on the seven-week-old female Balb/c nude mice (n = 30) weighing 19–21 grams (Shanghai Laboratory Animal Center). Briefly, 0.2 mL HepG2 cells (1 × 10^7/mL) were inoculated subcutaneously into the alar left of each mouse. On the third day after the inoculation, the HepG2-bearing mice were randomly divided into five groups (n = 6/group) and administrated the according drug or solvent. […] The control group was administrated of saline as negative control. The body weight and tumor volumes calculation were recorded from the day of treatment, and the tumor volumes were calculated using the following equation: tumor volume = length × (width)^2 × π/6. Animal experiments were reviewed and approved by the Binzhou Medical University Experimental Animal Committee.

Where [8] appears, read: quotient of the IC50 values towards nonmalignant LO2 cells.

Take `O=C1/C(=C/c2cc(/N=C/c3ccc(O)c(O)c3O)ccc2F)CNC/C1=C\c1cc(/N=C/c2ccc(O)c(O)c2O)ccc1F` [5c]: the IC50 in assay [1] is 15200 ± 600 nM; in assay [2] (average over the six carcinoma cell lines, read-out: Ave IC50) it was 1200 nM; in assay [2] (statement for all experimental carcinoma cell lines, read-out: IC50 values against human carcinoma cell lines), less than 2000 nM; in assay [3] (Homo sapiens, HepG2, MTT, 24 hours), 600 ± 100 nM; in assay [4] (Homo sapiens, K562, MTT, 24 hours) it was 1300 ± 100 nM; in assay [5] (Homo sapiens, HeLa, MTT, 24 hours) it was 1500 ± 300 nM. The “Ave SI” value in assay [2] (average over the six carcinoma cell lines) is given as 14.1. Further, the “HePG2 SI” value in assay [3] (setting [8]) is on record as 24.5. The “K562 SI” value in assay [4] (setting [8]) stood at 11.8. In addition, the “HeLa SI” value in assay [5] (setting [8]) is reported as 9.8. Further, the HepG2 cells apoptosis result in assay [6] is recorded as “dose-dependent apoptosis”. Besides, the tumor growth inhibition entry in assay [7] (1.0 mg/kg/d i.p. for 20 days) is on record as “light inhibitory activity”; in assay [7] (10 mg/kg/d i.p. for 20 days), “significantly inhibited the tumor growth”.
